Measured values taken from patent US9833463B2, “Sitagliptin tannate complex” (MERCK SHARP & DOHME CORP., priority 2014, dated 2017).

Type: physicochemical
Protocol: The dissolution profile of the sitagliptin tannate complexes of Example 1 and 2 using simulated saliva fluid (SSF) and simulated gastric fluid (SGF) by using the following two stage dissolution protocol:
Stage 1: A sample of sitagliptin tannate complex of Example 1 or 2 was placed in 10 mL of SSF, which was prepared by dissolving 8.0 g of NaCl, 0.19 g of potassium phosphate monobasic, and 2.38 g of sodium phosphate dibasic in 1 L of water, and adjusting to pH 6.8 with phosphoric acid, heated to 37° C., for 1 minute and an aliquot was removed.
Stage 2: The remaining solution transferred to 500 mL of SGF, which was prepared by dissolving 2.0 g of NaCl in 1 L of water, and adding 1.4 mL of concentrated hydrochloric acid. The SGF was stirred at 37° C. with apparatus 2 (paddles), and aliquots were collected at 6 time-points.
The aliquots were then analyzed by HPLC to determine the amount of free sitagliptin.

Row | Substance | solubility of the complex at neutral pH | release in acidic pH (acidic pH, such as that found in the stomach) | release rate at neutral pH (neutral pH, such as that found in the mouth) | sitagliptin release from the complex in SGF (stage 2) (simulated gastric fluid (low pH), 37° C., apparatus 2 (paddles), 6 time-points, FIG. 1 / FIG. 2) | sitagliptin released from the complex in SSF (stage 1) (simulated saliva fluid pH 6.8, 37° C., 1 minute, FIG. 1 / FIG. 2)
1 | sitagliptin tannate complex | not soluble or almost not soluble | immediate release | negligible release rate |  | 
2 | sitagliptin tannate complex [Example 2] |  |  |  | rapidly released | very little to no sitagliptin was released
